According to US11090246B2, “Powder hair dye composition” (KAO CORPORATION, priority 2017, dated 2021):

test: pKa and color of the azo dyes on dissociation of a proton; type: physicochemical
Excerpt: Therefore, because the components (B) and (C) coexist with the component (A) in the powder hair dye composition of the present invention, a proton of the component (A) is dissociated and a color of the composition becomes close to one after hair dyeing.

color assumed by dissociation of a proton	Structure (SMILES)
blue color	NS(=O)(=O)c1ccc2nsc(/N=N/c3ccc(O)c(Cl)c3)c2c1 [(A-2), HC Red 18]
yellow color	Cn1nccc1/N=N/c1ccc(O)c(Cl)c1 [(A-3), HC Yellow 16]
red color	CSc1nsc(/N=N/c2ccc(O)c(Cl)c2)n1 [(A-1), HC Blue 18]
